What was measured:
[1] = biological target: T1, human JAK2 (a.a. 828-1132) (Homo sapiens, UniProt O60674); experiment: In vitro JAK kinase assay (HTRF), JAK2; assay type: biochemical; details: ratio of IC50s at 1 mM ATP
T1 construct: JAK2 (a.a. 828-1132); made in house; host or cells: insect cells (baculovirus)

[2] = biological target: T2, human JAK1 (a.a. 837-1142) (Homo sapiens, UniProt P23458); experiment: In vitro JAK kinase assay (HTRF), JAK1; assay type: biochemical; details: 1 mM ATP
T2 construct: human JAK1 (a.a. 837-1142); made in house; host or cells: insect cells (baculovirus)
T2 sequence (P23458 849-1154): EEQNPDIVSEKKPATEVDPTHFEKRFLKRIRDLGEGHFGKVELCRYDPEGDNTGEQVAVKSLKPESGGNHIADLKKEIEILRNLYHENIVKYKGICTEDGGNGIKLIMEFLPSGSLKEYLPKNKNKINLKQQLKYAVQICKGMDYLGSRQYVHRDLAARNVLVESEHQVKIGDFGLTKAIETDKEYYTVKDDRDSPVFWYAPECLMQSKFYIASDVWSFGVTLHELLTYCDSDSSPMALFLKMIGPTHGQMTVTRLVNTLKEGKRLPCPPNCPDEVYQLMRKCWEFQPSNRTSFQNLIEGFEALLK

[3] = system: GCSF induced pSTAT3 in human neutrophils; experiment: JAK human neutrophil assay (pSTAT3 ELISA); details: 0.25 h, read-out: IC50 (inhibition of pSTAT3)

T1 sequence (O60674 828-1132): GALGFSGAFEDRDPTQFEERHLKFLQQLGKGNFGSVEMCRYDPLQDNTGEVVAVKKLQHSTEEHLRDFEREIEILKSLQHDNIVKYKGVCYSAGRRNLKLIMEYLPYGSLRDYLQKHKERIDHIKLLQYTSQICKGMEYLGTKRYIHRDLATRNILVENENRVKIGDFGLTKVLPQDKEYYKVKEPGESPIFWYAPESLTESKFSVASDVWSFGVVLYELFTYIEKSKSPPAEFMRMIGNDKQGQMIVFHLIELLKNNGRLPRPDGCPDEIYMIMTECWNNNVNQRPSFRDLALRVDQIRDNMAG

`N#CCC1(n2cc(-c3ncnc4[nH]ccc34)cn2)CN(C2CCN(C(=O)c3ccnc(C(F)(F)F)n3)CC2)C1` [Compound 9, [3-[4-(7H-pyrrolo[2,3-d]pyrimidin-4-yl)-1H-pyrazol-1-yl]-1-(1-{[2-(trifluoromethyl)pyrimidin-4-yl]carbonyl}piperidin-4-yl)azetidin-3-yl]acetonitrile] was tested, and the JAK2/JAK1 [1] was >10 and the IC50 [2] was < 10 nM.
In the case of `Cc1n[nH]c(C)c1-c1cnn(C2(CC#N)CN(c3cc(F)c(C(=O)N[C@@H](C)C(F)(F)F)cc3F)C2)c1` [Compound 2, 4-[3-(cyanomethyl)-3-(3′,5′-dimethyl-1H,1′H-4,4′-bipyrazol-1-yl)azetidin-1-yl]-2,5-difluoro-N-[(1S)-2,2,2-trifluoro-1-methylethyl]benzamide], the IC50 [3] is reported as < 100 nM.
With `N#CCC1(n2cc(-c3ncnc4[nH]ccc34)cn2)CN([C@H]2CC[C@@H](Oc3cc(CCO)nc(C(F)(F)F)n3)CC2)C1` [Compound 18, {1-(cis-4-{[6-(2-hydroxyethyl)-2-(trifluoromethyl)pyrimidin-4-yl]oxy}cyclohexyl)-3-[4-(7H-pyrrolo[2,3-d]pyrimidin-4-yl)-1H-pyrazol-1-yl]azetidin-3-yl}acetonitrile] the JAK2/JAK1 [1] was >10 and the IC50 [2] was < 10 nM.
`C[C@@H](O)c1nc2cnc3ccsc3c2n1[C@H]1CC[C@H](CC#N)OC1` [Compound 1, ((2R,5S)-5-{2-[(1R)-1-hydroxyethyl]-1H-imidazo[4,5-d]thieno[3,2-b]pyridin-1-yl}tetrahydro-2H-pyran-2-yl)acetonitrile] was tested, and the IC50 [3] was < 100 nM, the JAK2/JAK1 [1] was >10 and the IC50 [2] was < 100 nM.
In the case of `N#CC[C@]1(n2cc(-c3ncnc4[nH]ccc34)cn2)C[C@H](N2CCC(Oc3cc(CN4CC(O)C4)cc(C(F)(F)F)n3)CC2)C1` [Compound 11, {trans-3-(4-{[4-[(3-hydroxyazetidin-1-yl)methyl]-6-(trifluoromethyl)pyridin-2-yl]oxy}piperidin-1-yl)-1-[4-(7H-pyrrolo[2,3-d]pyrimidin-4-yl)-1H-pyrazol-1-yl]cyclobutyl} acetonitrile], the JAK2/JAK1 [1] is reported as >10 and the IC50 [2] is reported as < 10 nM.
`N#CCC1(n2cc(-c3ncnc4[nH]ccc34)cn2)CN(C2CCN(C(=O)c3ccnc(C(F)(F)F)c3F)CC2)C1` [Compound 7, {1-{1-[3-Fluoro-2-(trifluoromethyl)iso-nicotinoyl]piperidin-4-yl}-3-[4-(7H-pyrrolo[2,3-d]pyrimidin-4-yl)-1H-pyrazol-1-yl]azetidin-3-yl}acetonitrile] was tested, and the IC50 [3] was < 100 nM, the JAK2/JAK1 [1] was >10 and the IC50 [2] was < 10 nM.
`CC(C)(O)c1cc(O[C@H]2CC[C@@H](N3CC(CC#N)(n4cc(-c5ncnc6[nH]ccc56)cn4)C3)CC2)nc(C(F)(F)F)c1` [Compound 20, {1-(cis-4-{[4-(1-hydroxy-1-methylethyl)-6-(trifluoromethyl)pyridin-2-yl]oxy}cyclohexyl)-3-[4-(7H-pyrrolo[2,3-d]pyrimidin-4-yl)-1H-pyrazol-1-yl]azetidin-3-yl}acetonitrile] was tested, and the JAK2/JAK1 [1] was >10 and the IC50 [2] was < 10 nM.
For `N#CC[C@]1(n2cc(-c3ncnc4[nH]ccc34)cn2)C[C@H](N2CCC(Oc3cc(CN4CCC[C@H]4CO)cc(C(F)(F)F)n3)CC2)C1` [Compound 12, {trans-3-(4-{[4-{[(2S)-2-(hydroxymethyl)pyrrolidin-1-yl]methyl}-6-(trifluoromethyl)pyridin-2-yl]oxy}piperidin-1-yl)-1-[4-(7H-pyrrolo[2,3-d]pyrimidin-4-yl)-1H-pyrazol-1-yl]cyclobutyl} acetonitrile], the JAK2/JAK1 [1] was >10 and the IC50 [2] was < 10 nM.
For `N#CCC1(n2cc(-c3ncnc4[nH]ccc34)cn2)CN([C@H]2CC[C@@H](Oc3cc(CN4CC[C@H](O)C4)cc(C(F)(F)F)n3)CC2)C1` [Compound 22, {1-(cis-4-{[4-{[(3S)-3-hydroxypyrrolidin-1-yl]methyl}-6-(trifluoromethyl)pyridin-2-yl]oxy}cyclohexyl)-3-[4-(7H-pyrrolo[2,3-d]pyrimidin-4-yl)-1H-pyrazol-1-yl]azetidin-3-yl}acetonitrile], the JAK2/JAK1 [1] was >10 and the IC50 [2] was < 10 nM.
`N#CC[C@]1(n2cc(-c3ncnc4[nH]ccc34)cn2)C[C@H](N2CCC(Oc3cc(CN4CCC[C@@H]4CO)cc(C(F)(F)F)n3)CC2)C1` [Compound 13, {trans-3-(4-{[4-{[(2R)-2-(hydroxymethyl)pyrrolidin-1-yl]methyl}-6-(trifluoromethyl)pyridin-2-yl]oxy}piperidin-1-yl)-1-[4-(7H-pyrrolo[2,3-d]pyrimidin-4-yl)-1H-pyrazol-1-yl]cyclobutyl} acetonitrile] was tested, and the JAK2/JAK1 [1] was >10 and the IC50 [2] was < 10 nM.
For `N#CC[C@]1(n2cc(-c3ncnc4[nH]ccc34)cn2)C[C@H](N2CCC(Oc3cc(CCO)cc(C(F)(F)F)n3)CC2)C1` [Compound 26, {trans-3-(4-{[4-(2-hydroxyethyl)-6-(trifluoromethyl)pyridin-2-yl]oxy}piperidin-1-yl)-1-[4-(7H-pyrrolo[2,3-d]pyrimidin-4-yl)-1H-pyrazol-1-yl]cyclobutyl} acetonitrile], the JAK2/JAK1 [1] was >10 and the IC50 [2] was < 10 nM.
With `N#CCC(CN1CCN(C(=O)c2ccc(C#N)cc2F)CC1)n1cc(-c2ncnc3[nH]ccc23)cn1` (centres unmarked) [Compound 5] the JAK2/JAK1 [1] was >10 and the IC50 [2] was < 10 nM.
With `C[C@@H](CO)NCc1cc(OC2CCN([C@H]3C[C@](CC#N)(n4cc(-c5ncnc6[nH]ccc56)cn4)C3)CC2)nc(C(F)(F)F)c1` [Compound 23, {trans-3-(4-{[4-({[(1S)-2-hydroxy-1-methylethyl]amino}methyl)-6-(trifluoromethyl)pyridin-2-yl]oxy}piperidin-1-yl)-1-[4-(7H-pyrrolo[2,3-d]pyrimidin-4-yl)-1H-pyrazol-1-yl]cyclobutyl} acetonitrile] the JAK2/JAK1 [1] was >10 and the IC50 [2] was < 10 nM.
With `C[C@H](NC(=O)c1cc(F)c(N2CC(CC#N)(n3cc(-c4ncnc5[nH]ccc45)cn3)C2)cc1F)C(F)(F)F` [Compound 16, 4-{3-(cyanomethyl)-3-[4-(7H-pyrrolo[2,3-d]pyrimidin-4-yl)-1H-pyrazol-1-yl]azetidin-1-yl}-2,5-difluoro-N-[(1S)-2,2,2-trifluoro-1-methylethyl]benzamide] the JAK2/JAK1 [1] was >10 and the IC50 [2] was < 10 nM.
For `C[C@@H](O)CNCc1cc(OC2CCN([C@H]3C[C@](CC#N)(n4cc(-c5ncnc6[nH]ccc56)cn4)C3)CC2)nc(C(F)(F)F)c1` [Compound 24, {trans-3-(4-{[4-({[(2R)-2-hydroxypropyl]amino}methyl)-6-(trifluoromethyl)pyridin-2-yl]oxy}piperidin-1-yl)-1-[4-(7H-pyrrolo[2,3-d]pyrimidin-4-yl)-1H-pyrazol-1-yl]cyclobutyl} acetonitrile], the JAK2/JAK1 [1] was >10 and the IC50 [2] was < 10 nM.
With `N#CC[C@]1(n2cc(-c3ncnc4[nH]ccc34)cn2)C[C@H](N2CCN(C(=O)c3ccnc(C(F)(F)F)n3)CC2)C1` [Compound 10, [trans-1-[4-(7H-pyrrolo[2,3-d]pyrimidin-4-yl)-1H-pyrazol-1-yl]-3-(4-{[2-(trifluoromethyl)pyrimidin-4-yl]carbonyl}piperazin-1-yl)cyclobutyl] acetonitrile] the JAK2/JAK1 [1] was >10 and the IC50 [2] was < 10 nM.
In the case of `N#CCC(C1CCN(c2nc3cccnc3o2)C1)n1cc(-c2ncnc3[nH]ccc23)cn1` (centres unmarked) [Compound 4, 3-(1-[1,3]oxazolo[5,4-b]pyridin-2-ylpyrrolidin-3-yl)-3-[4-(7H-pyrrolo[2,3-d]pyrimidin-4-yl)-1H-pyrazol-1-yl]propanenitrile], the JAK2/JAK1 [1] is reported as >10 and the IC50 [2] is reported as < 10 nM.
For `N#CCC(C1CCN(c2cccc(Cl)n2)C1)n1cc(-c2ncnc3[nH]ccc23)cn1` (single isomer, unassigned) [Compound 3, 3-[1-(6-chloropyridin-2-yl)pyrrolidin-3-yl]-3-[4-(7H-pyrrolo[2,3-d]pyrimidin-4-yl)-1H-pyrazol-1-yl]propanenitrile], the JAK2/JAK1 [1] was >10 and the IC50 [2] was < 10 nM.
With `N#CCC(CN1CCN(C(=O)c2ccc(C#N)cc2F)CC1)n1ccc(-c2ncnc3[nH]ccc23)c1` (centres unmarked) [Compound 6, 4-[(4-{3-cyano-2-[3-(7H-pyrrolo[2,3-d]pyrimidin-4-yl)-1H-pyrrol-1-yl]propyl}piperazin-1-yl)carbonyl]-3-fluorobenzonitrile] the JAK2/JAK1 [1] was >10 and the IC50 [2] was < 10 nM.
For `C[C@H](O)CNCc1cc(OC2CCN([C@H]3C[C@](CC#N)(n4cc(-c5ncnc6[nH]ccc56)cn4)C3)CC2)nc(C(F)(F)F)c1` [Compound 25, {trans-3-(4-{[4-({[(2S)-2-hydroxypropyl]amino}methyl)-6-(trifluoromethyl)pyridin-2-yl]oxy}piperidin-1-yl)-1-[4-(7H-pyrrolo[2,3-d]pyrimidin-4-yl)-1H-pyrazol-1-yl]cyclobutyl} acetonitrile], the JAK2/JAK1 [1] was >10 and the IC50 [2] was < 10 nM.
`CCNCc1cc(O[C@H]2CC[C@@H](N3CC(CC#N)(n4cc(-c5ncnc6[nH]ccc56)cn4)C3)CC2)nc(C(F)(F)F)c1` [Compound 19, {1-(cis-4-{[4-[(ethylamino)methyl]-6-(trifluoromethyl)pyridin-2-yl]oxy}cyclohexyl)-3-[4-(7H-pyrrolo[2,3-d]pyrimidin-4-yl)-1H-pyrazol-1-yl]azetidin-3-yl}acetonitrile] was tested, and the JAK2/JAK1 [1] was >10 and the IC50 [2] was < 10 nM.
With `N#CCC1(n2cc(-c3ncnc4[nH]ccc34)cn2)CN(C2CCN(C(=O)Nc3ccc(F)cc3C(F)(F)F)CC2)C1` [Compound 8, 4-{3-(Cyanomethyl)-3-[4-(7H-pyrrolo[2,3-d]pyrimidin-4-yl)-1H-pyrazol-1-yl]azetidin-1-yl}-N-[4-fluoro-2-(trifluoromethyl)phenyl] piperidine-1-carboxamide] the JAK2/JAK1 [1] was >10 and the IC50 [2] was < 10 nM.
In the case of `N#CCC1(n2cc(-c3ncnc4[nH]ccc34)cn2)CN([C@H]2CC[C@@H](Oc3cc(CN4CC[C@@H](O)C4)cc(C(F)(F)F)n3)CC2)C1` [Compound 21, {1-(cis-4-{[4-{[(3R)-3-hydroxypyrrolidin-1-yl]methyl}-6-(trifluoromethyl)pyridin-2-yl]oxy}cyclohexyl)-3-[4-(7H-pyrrolo[2,3-d]pyrimidin-4-yl)-1H-pyrazol-1-yl]azetidin-3-yl}acetonitrile], the JAK2/JAK1 [1] is reported as >10 and the IC50 [2] is reported as < 10 nM.

Reference: US9498467B2, “Treatment of chronic neutrophilic leukemia (CNL) and atypical chronic myeloid leukemia (aCML) by inhibitors of JAK1” (Incyte Corporation, priority 2014, dated 2016)
